# Laboratory results published in the supplement of paper PMC7645387.
# ± gives the standard deviation of the averaged measurements.
# Experiments:
# Assay in all cases: cell viability relative to DMSO control; higher = less growth inhibition
# Details in all cases: treatment time: 6 days
# PeTa = system: PeTa
# Method: (§1)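 MCC cell lines (PeTa, MKL-1, MS-1, WaGa) and HDFB fibroblasts were treated for 6 days with serial dilutions (1e-11 to 1e-4 M) of single compounds in quadruplicate. Viability was read by CellTiter-Glo 2.0 and expressed as % of DMSO control.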
# HDFB = system: HDFB
# Method: as §1
# MKL-1 = system: MKL-1
# Method: as §1
# WaGa = system: WaGa
# Method: as §1
# MS-1 = system: MS-1
# Method: as §1
SMILES,cell viability (PeTa; log10 concentration (M): -4) [%],cell viability (PeTa; log10 concentration (M): -5) [%],cell viability (PeTa; log10 concentration (M): -6) [%],cell viability (PeTa; log10 concentration (M): -7) [%],cell viability (PeTa; log10 concentration (M): -8) [%],cell viability (PeTa; log10 concentration (M): -9) [%],cell viability (PeTa; log10 concentration (M): -10) [%],cell viability (PeTa; log10 concentration (M): -11) [%],cell viability (HDFB; log10 concentration (M): -4) [%],cell viability (HDFB; log10 concentration (M): -5) [%],cell viability (HDFB; log10 concentration (M): -6) [%],cell viability (HDFB; log10 concentration (M): -7) [%],cell viability (HDFB; log10 concentration (M): -8) [%],cell viability (HDFB; log10 concentration (M): -9) [%],cell viability (HDFB; log10 concentration (M): -10) [%],cell viability (HDFB; log10 concentration (M): -11) [%],cell viability (MKL-1; log10 concentration (M): -4) [%],cell viability (MKL-1; log10 concentration (M): -5) [%],cell viability (MKL-1; log10 concentration (M): -6) [%],cell viability (MKL-1; log10 concentration (M): -7) [%],cell viability (MKL-1; log10 concentration (M): -8) [%],cell viability (MKL-1; log10 concentration (M): -9) [%],cell viability (MKL-1; log10 concentration (M): -10) [%],cell viability (MKL-1; log10 concentration (M): -11) [%],cell viability (WaGa; log10 concentration (M): -5) [%],cell viability (WaGa; log10 concentration (M): -6) [%],cell viability (WaGa; log10 concentration (M): -7) [%],cell viability (WaGa; log10 concentration (M): -8) [%],cell viability (WaGa; log10 concentration (M): -9) [%],cell viability (WaGa; log10 concentration (M): -10) [%],cell viability (WaGa; log10 concentration (M): -11) [%],cell viability (MS-1; log10 concentration (M): -5) [%],cell viability (MS-1; log10 concentration (M): -6) [%],cell viability (MS-1; log10 concentration (M): -7) [%],cell viability (MS-1; log10 concentration (M): -8) [%],cell viability (MS-1; log10 concentration (M): -9) [%],cell viability (MS-1; log10 concentration (M): -10) [%],cell viability (MS-1; log10 concentration (M): -11) [%]
O=C(NC[C@H](O)CN1CCc2ccccc2C1)c1ccnc(NC2CCC2)c1 [GSK591],26.2 ± 2.9,80.4 ± 3.4,93.2 ± 3.1,103 ± 3.5,107 ± 7.2,108 ± 6.4,106 ± 7.8,100 ± 7.8,91.5 ± 3.5,115 ± 7.4,112 ± 5.1,117 ± 5.5,113 ± 3.1,104 ± 2.8,104 ± 2.1,101 ± 2,37.2 ± 2.9,64.4 ± 12,72.4 ± 13,79.2 ± 16,84.2 ± 21,98.2 ± 17,111 ± 28,101 ± 22,–,–,–,–,–,–,–,–,–,–,–,–,–,–
c1ccc([C@@H]2C[C@H]2NC2CCNCC2)cc1 [GSK-LSD1],–,28.8 ± 1.3,23.1 ± 2.4,21.3 ± 0.88,28.1 ± 0.85,67.8 ± 4.2,101 ± 5.4,99.1 ± 7.4,–,97.43 ± 0.88,98.5 ± 1.4,98.6 ± 3.9,99.4 ± 4.2,100 ± 1.2,105 ± 2.1,103 ± 1.1,–,56.1 ± 5.8,62 ± 1.4,60.1 ± 3.4,67.2 ± 1.8,87.9 ± 6.7,98.1 ± 2.9,98.7 ± 1.5,45 ± 5.1,49.8 ± 2.1,44.1 ± 5.5,55.4 ± 1.8,76.6 ± 5.2,95.6 ± 3,97.6 ± 6.1,45.9 ± 1.6,45.4 ± 3.8,47.6 ± 1.6,47.1 ± 3.4,74.9 ± 5.8,93.1 ± 2.9,94.7 ± 3.8
CN1CCN(c2ccc(-c3cccc(CN4CCOCC4)c3)cc2NC(=O)c2c[nH]c(=O)cc2C(F)(F)F)CC1 [OICR9429],49.1 ± 85,96.8 ± 45,103 ± 21,111 ± 21,119 ± 29,126 ± 27,122 ± 21,126 ± 25,42.7 ± 12,83.7 ± 5.2,97.6 ± 5.7,105 ± 3.1,117 ± 20,113 ± 7.9,108 ± 4.6,104 ± 4.1,0.438 ± 0.44,57.6 ± 3.4,79.2 ± 7.5,87.1 ± 17,80.2 ± 6.2,85.8 ± 12,89.9 ± 12,85.7 ± 13,–,–,–,–,–,–,–,–,–,–,–,–,–,–
N[C@H]1CC[C@H](N[C@@H]2C[C@H]2c2ccccc2)CC1 [ORY-1001],–,22.3 ± 2.8,18.2 ± 3.2,17.2 ± 0.89,16.3 ± 1.2,47.5 ± 17,102 ± 6.4,97.6 ± 4.8,–,95.7 ± 2.2,97.6 ± 3.9,94.1 ± 2.7,95.1 ± 2.2,96.1 ± 1.3,99.58 ± 0.98,100 ± 1.3,–,39.8 ± 5.9,44.9 ± 3.6,46.4 ± 4.5,62.8 ± 28,81 ± 16,102 ± 3.2,100 ± 4.5,35.1 ± 2.3,38.3 ± 4.8,39.7 ± 5.1,44 ± 5.8,63.3 ± 1.2,91.5 ± 1.2,99.1 ± 0.86,47.3 ± 2.2,56.8 ± 1.2,58.9 ± 5.5,57.2 ± 2.4,58.8 ± 1.9,104 ± 3,104 ± 16
CCOC(=O)NCCCC(=O)NCCc1ccccc1 [Santacruzamate A],45.5 ± 14,104 ± 5.5,105 ± 2.4,99.9 ± 11,105 ± 1.4,103 ± 1.9,105 ± 3.6,103 ± 2.8,41.6 ± 3.4,103 ± 3.4,103 ± 3.5,99.8 ± 4.6,101 ± 3.4,101 ± 6.3,99.3 ± 7.7,100 ± 9.2,34.9 ± 2.9,106 ± 1.2,105 ± 1.5,104 ± 1.9,103 ± 1.4,102 ± 3.4,99.3 ± 7.4,100 ± 1.6,–,–,–,–,–,–,–,–,–,–,–,–,–,–
